Test results from patent publication US9309198B2, “N-[3-(2-carboxyethyl)phenyl]piperidin-1-ylacetamide derivatives and use thereof as activators of soluble guanylate cyclase” (Bayer Pharma Aktiengesellschaft, priority 2012, dated 2016).
pEC50: −log10 of the molar value. Counter-ions that a name gives are not always drawn.

Columns and labels:
[1] = biological target: T1, recombinant guanylate cyclase reporter cell line (sGC, CHO reporter cell) (Rattus norvegicus, UniProt P20595); test: Effect on a recombinant guanylate cyclase reporter cell line (CHO reporter cell); assay type: cell-based
T1 construct: expressed in transfected cells; host or cells: CHO reporter cell line
T1 sequence (P20595 1-619): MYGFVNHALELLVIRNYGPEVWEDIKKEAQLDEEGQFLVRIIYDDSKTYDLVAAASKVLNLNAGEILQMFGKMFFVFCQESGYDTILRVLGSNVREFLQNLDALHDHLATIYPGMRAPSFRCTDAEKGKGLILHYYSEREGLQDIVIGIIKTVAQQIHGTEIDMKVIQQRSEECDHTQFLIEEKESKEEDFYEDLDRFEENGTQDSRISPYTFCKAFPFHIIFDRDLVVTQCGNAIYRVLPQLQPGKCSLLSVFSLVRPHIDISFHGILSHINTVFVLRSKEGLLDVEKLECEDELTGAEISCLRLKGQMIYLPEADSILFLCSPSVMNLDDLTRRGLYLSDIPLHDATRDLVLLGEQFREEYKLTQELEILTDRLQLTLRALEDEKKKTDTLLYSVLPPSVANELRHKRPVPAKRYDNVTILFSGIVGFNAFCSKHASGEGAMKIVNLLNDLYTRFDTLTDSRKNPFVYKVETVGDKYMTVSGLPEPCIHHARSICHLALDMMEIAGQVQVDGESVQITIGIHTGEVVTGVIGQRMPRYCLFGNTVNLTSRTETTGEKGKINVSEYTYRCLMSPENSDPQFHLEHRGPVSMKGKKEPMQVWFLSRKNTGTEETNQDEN
T1 sequence (P19686 1-690 partner): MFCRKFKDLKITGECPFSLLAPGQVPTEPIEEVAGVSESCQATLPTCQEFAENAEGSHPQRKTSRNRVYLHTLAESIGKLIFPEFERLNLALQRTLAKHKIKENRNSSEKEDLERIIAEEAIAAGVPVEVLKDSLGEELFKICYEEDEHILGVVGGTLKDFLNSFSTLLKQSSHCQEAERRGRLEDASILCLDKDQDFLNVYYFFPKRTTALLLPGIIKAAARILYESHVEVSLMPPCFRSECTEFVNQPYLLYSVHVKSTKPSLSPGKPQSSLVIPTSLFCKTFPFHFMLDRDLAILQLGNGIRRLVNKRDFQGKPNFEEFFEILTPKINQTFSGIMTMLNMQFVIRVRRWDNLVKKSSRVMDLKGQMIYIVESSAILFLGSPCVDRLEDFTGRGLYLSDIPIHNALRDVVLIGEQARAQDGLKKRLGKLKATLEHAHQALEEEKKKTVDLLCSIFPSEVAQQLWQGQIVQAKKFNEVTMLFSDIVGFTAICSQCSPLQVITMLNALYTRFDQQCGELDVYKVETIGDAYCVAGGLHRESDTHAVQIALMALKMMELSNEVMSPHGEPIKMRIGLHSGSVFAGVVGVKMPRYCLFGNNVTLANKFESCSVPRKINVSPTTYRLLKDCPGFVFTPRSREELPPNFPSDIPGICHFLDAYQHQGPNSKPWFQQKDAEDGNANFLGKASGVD
Procedure: B-2. Effect on a Recombinant Guanylate Cyclase Reporter Cell Line The cellular activity of the compounds according to the invention is determined using a recombinant guanylate cyclase reporter cell line, as described in F. Wunder et al., Anal. Biochem. 339, 104-112 (2005).

[2] = biological target: T2, soluble guanylate cyclase (sGC) (Rattus norvegicus, UniProt P20595); test: Stimulation of sGC enzyme activity (PPi detection, luciferase luminescence); assay type: biochemical; conditions: for pEC50: read-out: EC50 (half-maximal effective concentration), activating action at the sGC enzyme in vitro
T2 construct: made in house
T2 sequence (P20595 1-619): T1 sequence (P20595 1-619)
T2 sequence (P19686 1-690 partner): T1 sequence (P19686 1-690 partner)
Procedure: B-3. Stimulation of sGC Enzyme Activity
Soluble guanylate cyclase (sGC) converts on stimulation GTP into cGMP and pyrophosphate (PPi). PPi is detected with the aid of the assay described below. The signal produced in the assay increases as the reaction progresses and serves as a measure of the sGC enzyme activity under the given stimulation.
To carry out the assay, 29 μl of enzyme solution [0-10 nM soluble guanylate cyclase (prepared according to Hönicka et al., J. Mol. Med. 77, 14-23 (1999)) in 50 mM TEA, 2 mM MgCl2, 0.1% BSA (fraction V), 0.005% Brij®, pH 7.5] are initially introduced into a microplate, and 1 μl of the substance to be tested (as a serially diluted solution in DMSO) is added. The mixture is incubated at room temperature for 10 min. Then 20 μl of detection mix [1.2 nM Firefly Luciferase (Photinus pyralis luciferase, Promega), 29 μM dehydroluciferin (prepared according to Bitler & McElroy, Arch. Biochem. Biophys. 72, 358 (1957)), 122 μM luciferin (Promega), 153 μM ATP (Sigma) and 0.4 mM DTT (Sigma) in 50 mM TEA, 2 mM MgCl2, 0.1% BSA (fraction V), 0.005% Brij®, pH 7.5] are added. The enzyme reaction is started by adding 20 μl of substrate solution [1.25 mM guanosine 5′-triphosphate (Sigma) in 50 mM TEA, 2 mM MgCl2, 0.1% BSA (fraction V), 0.005% Brij®, pH 7.5] and measured continuously in a luminometer. The extent of the stimulation by the substance to be tested can be determined relative to the signal of the unstimulated reaction.
The activation of haem-free guanylate cyclase is examined by addition of 25 μM of 1H-1,2,4-oxadiazolo[4,3-a]quinoxalin-1-one (ODQ) to the enzyme solution and subsequent incubation for 30 minutes and compared to the stimulation of the native enzyme.

MEC (minimum effective concentration), sGC-activating activity in the CHO reporter cell in vitro [1]	MEC (minimum effective concentration), activating action at the sGC enzyme in vitro [2]	pEC50 [2]	SMILES
100 nM	160 nM	6.08	O=C(Nc1cc(CC2(C(=O)O)CC2)ccc1F)C(C1CCCC1)N1CCc2ccccc2C1 (racemic) [Example 53, rac-1-(3-{[Cyclopentyl(3,4-dihydroisoquinolin-2(1H)-yl)acetyl]amino}-4-fluorobenzyl)cyclopropanecarboxylic acid trifluoroacetate]
0.3 nM	1.2 nM	7.68	CCC1CCN(C(C(=O)Nc2cc(CC3(C(=O)O)CC3)ccc2F)C(C)C(F)(F)F)CC1 (single isomer, unassigned) [Example 8, 1-(3-{[2-(4-ethylpiperidin-1-yl)-4,4,4-trifluoro-3-methylbutanoyl]amino}-4-fluorobenzyl)cyclopropanecarboxylic acid]
10 nM	17 nM	6.41	CCC1CCN(C(C(=O)Nc2cc(CCC(=O)O)ccc2Cl)C(C)C(F)(F)F)CC1 (single isomer, unassigned) [Example 11, 3-(4-chloro-3-{[2-(4-ethylpiperidin-1-yl)-4,4,4-trifluoro-3-methylbutanoyl]amino}phenyl)propanoic acid]
0.3 nM	1.1 nM	8.10	CCC1CCN([C@@H](C(=O)Nc2cc(CC3(C(=O)O)CC3)ccc2F)[C@@H](C)C(F)(F)F)CC1 (single isomer, unassigned) [Example 39]
10 nM	17 nM	6.68	C[C@H]([C@H](C(=O)Nc1cc(C[C@H](C)C(=O)O)ccc1Cl)N1CCC2(CC1)CC2)C(F)(F)F (single isomer, unassigned) [Example 46]
1 nM	3.9 nM	7.09	C[C@H](CC(=O)O)c1ccc(Cl)c(NC(=O)[C@@H]([C@@H](C)C(F)(F)F)N2CCC3(CC2)CC3)c1 (single isomer, unassigned) [Example 47]
3 nM	1.1 nM	7.48	CC1CCN([C@@H](C(=O)Nc2cc([C@H](C)CC(=O)O)ccc2Cl)[C@@H](C)C(F)(F)F)CC1 (single isomer, unassigned) [Example 48]
2.3 nM	3 nM	7.60	CC1CCN(C(C(=O)Nc2cc(CC3(C(=O)O)CC3)ccc2F)C(C)C(F)(F)F)CC1 (single isomer, unassigned; (+)) [Example 36, (+)-1-(4-Fluoro-3-{[4,4,4-trifluoro-3-methyl-2-(4-methylpiperidin-1-yl)butanoyl]amino}benzyl)cyclopropanecarboxylic acid]
30 nM	6.9 nM	6.27	C[C@H]([C@H](C(=O)Nc1cc(CCC(=O)O)ccc1F)N1CCC(C2CC2)CC1)C(F)(F)F [Example 18]
1 nM	0.8 nM	8.00	CCC1CCN([C@@H](C(=O)Nc2cc(CC3(C(=O)O)CC3)ccc2Cl)[C@@H](C)C(F)(F)F)CC1 [Example 26, 1-(4-Chloro-3-{[(2R,3R)-2-(4-ethylpiperidin-1-yl)-4,4,4-trifluoro-3-methylbutanoyl]amino}benzyl)cyclopropanecarboxylic acid]
10 nM	10.5 nM	6.68	CC1CCN([C@@H](C(=O)Nc2cc(C[C@H](C)C(=O)O)ccc2Cl)[C@@H](C)C(F)(F)F)CC1 [Example 27]
300 nM			CC1CCN([C@@H](C(=O)Nc2cc(C[C@@H](C)C(=O)O)ccc2F)[C@@H](C)C(F)(F)F)CC1 [Example 30]
100 nM			CC1CCN([C@@H](C(=O)Nc2cc(C[C@@H](C)C(=O)O)ccc2Cl)[C@@H](C)C(F)(F)F)CC1 [Example 31]
30 nM			CC1CCN([C@@H](C(=O)Nc2cc(C[C@H](C)C(=O)O)ccc2F)[C@@H](C)C(F)(F)F)CC1 [Example 32]
300 nM			C[C@H](Cc1ccc(F)c(NC(=O)[C@@H]([C@@H](C)C(F)(F)F)N2CCC3(CC2)CC3)c1)C(=O)O [Example 33]
10 nM	10.5 nM	7.05	C[C@H]([C@H](C(=O)Nc1cc(C[C@H](C)C(=O)O)ccc1Cl)N1CCC(C(F)(F)F)CC1)C(F)(F)F [Example 34]
1 nM	1.2 nM		CC1CCN([C@@H](C(=O)Nc2cc(CC3(C(=O)O)CC3)ccc2Cl)[C@@H](C)C(F)(F)F)CC1 [Example 51, 1-(4-Chloro-3-{[(2R,3R)-4,4,4-trifluoro-3-methyl-2-(4-methylpiperidin-1-yl)butanoyl]amino}benzyl)cyclopropanecarboxylic acid]
